Test results reported in paper PMC4676015, “Variant fatty acid-like molecules Conjugation, novel approaches for extending the stability of therapeutic peptides” (Scientific Reports, 2015).

Target: T1, GLP-1 receptor (GLP-1R) (Rattus norvegicus, UniProt P32301)
T1 construct: endogenous in cells; host or cells: rat INS-1 cells
T1 sequence (P32301 22-463): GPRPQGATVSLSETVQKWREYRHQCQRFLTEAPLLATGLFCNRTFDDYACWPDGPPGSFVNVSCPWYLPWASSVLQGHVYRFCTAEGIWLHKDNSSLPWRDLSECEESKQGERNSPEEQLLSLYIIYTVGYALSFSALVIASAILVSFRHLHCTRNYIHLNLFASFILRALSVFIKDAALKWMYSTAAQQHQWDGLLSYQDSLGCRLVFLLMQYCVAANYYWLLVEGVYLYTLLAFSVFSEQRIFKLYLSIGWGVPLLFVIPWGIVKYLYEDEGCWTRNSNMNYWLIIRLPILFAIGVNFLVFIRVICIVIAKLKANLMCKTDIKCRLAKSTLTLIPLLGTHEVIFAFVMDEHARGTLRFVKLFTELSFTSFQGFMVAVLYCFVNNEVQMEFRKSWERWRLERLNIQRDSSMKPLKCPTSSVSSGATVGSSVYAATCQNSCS
Assay: GLP-1 receptor binding assay (cellular ELISA)
Protocol: Cells were rinsed with PBS and fixed with 4% paraformaldehyde (Thermo Scientific) for 10 min at room temperature and quenched for 5 min with 2% glycine in PBS, pH 7.5. […] After a 2 h incubation at 37 °C in a final volume of 100 μl, the excess peptides were washed, and the cells were blocked with 5% BSA (BD Biosciences). […] Colorimetric changes were analyzed by reading the absorbance at 450 nm in a SpectraMax M5 (Molecular Device) microplate reader. The peptide concentration was plotted against UV absorbance, and the Kd was calculated using Origin 7.0 software.

Row | Kd | SMILES
1 | 0.0143 ± 0.0011 µM | CCCCCCCCCCCC(=O)NCCCC[C@H](NC(=O)[C@@H](NC(=O)[C@H](CC(C)C)NC(=O)[C@H](Cc1c[nH]c2ccccc12)NC(=O)[C@H](C)NC(=O)[C@@H](NC(=O)[C@H](Cc1ccccc1)NC(=O)[C@H](CCC(=O)O)NC(=O)[C@H](CCCCN)NC(=O)[C@H](C)NC(=O)[C@H](C)NC(=O)[C@H](CCC(N)=O)NC(=O)CNC(=O)[C@H](CCC(=O)O)NC(=O)[C@H](CC(C)C)NC(=O)[C@H](Cc1ccc(O)cc1)NC(=O)[C@H](CO)NC(=O)[C@H](CO)NC(=O)[C@@H](NC(=O)[C@H](CC(=O)O)NC(=O)[C@H](CO)NC(=O)[C@@H](NC(=O)[C@H](Cc1ccccc1)NC(=O)[C@@H](NC(=O)CNC(=O)[C@H](CCC(=O)O)NC(=O)[C@H](C)NC(=O)[C@@H](N)Cc1c[nH]cn1)[C@@H](C)O)[C@@H](C)O)C(C)C)[C@@H](C)CC)C(C)C)C(=O)NCC(=O)N[C@@H](CCCNC(=N)N)C(=O)NCC(=O)O [compound 5]
2 | 0.0201 ± 0.00197 µM | CCCCCCCCCCCCNC(=O)C[C@H](NC(=O)[C@@H](NC(=O)[C@H](CC(C)C)NC(=O)[C@H](Cc1c[nH]c2ccccc12)NC(=O)[C@H](C)NC(=O)[C@@H](NC(=O)[C@H](Cc1ccccc1)NC(=O)[C@H](CCC(=O)O)NC(=O)[C@H](CCCCN)NC(=O)[C@H](C)NC(=O)[C@H](C)NC(=O)[C@H](CCC(N)=O)NC(=O)CNC(=O)[C@H](CCC(=O)O)NC(=O)[C@H](CC(C)C)NC(=O)[C@H](Cc1ccc(O)cc1)NC(=O)[C@H](CO)NC(=O)[C@H](CO)NC(=O)[C@@H](NC(=O)[C@H](CC(=O)O)NC(=O)[C@H](CO)NC(=O)[C@@H](NC(=O)[C@H](Cc1ccccc1)NC(=O)[C@@H](NC(=O)CNC(=O)[C@H](CCC(=O)O)NC(=O)[C@H](C)NC(=O)[C@@H](N)Cc1c[nH]cn1)[C@@H](C)O)[C@@H](C)O)C(C)C)[C@@H](C)CC)C(C)C)C(=O)NCC(=O)N[C@@H](CCCNC(=N)N)C(=O)NCC(=O)O [compound 20]
3 | 0.104 ± 0.00342 µM | CCCCCCCCNC(=O)CC[C@H](NC(=O)[C@H](C)NC(=O)[C@@H](N)Cc1c[nH]cn1)C(=O)NCC(=O)N[C@H](C(=O)N[C@@H](Cc1ccccc1)C(=O)N[C@H](C(=O)N[C@@H](CO)C(=O)N[C@@H](CC(=O)O)C(=O)N[C@H](C(=O)N[C@@H](CO)C(=O)N[C@@H](CO)C(=O)N[C@@H](Cc1ccc(O)cc1)C(=O)N[C@@H](CC(C)C)C(=O)N[C@@H](CCC(=O)O)C(=O)NCC(=O)N[C@@H](CCC(N)=O)C(=O)N[C@@H](C)C(=O)N[C@@H](C)C(=O)N[C@@H](CCCCN)C(=O)N[C@@H](CCC(=O)O)C(=O)N[C@@H](Cc1ccccc1)C(=O)N[C@H](C(=O)N[C@@H](C)C(=O)N[C@@H](Cc1c[nH]c2ccccc12)C(=O)N[C@@H](CC(C)C)C(=O)N[C@H](C(=O)N[C@@H](CCCCN)C(=O)NCC(=O)N[C@@H](CCCNC(=N)N)C(=O)NCC(=O)O)C(C)C)[C@@H](C)CC)C(C)C)[C@@H](C)O)[C@@H](C)O [compound 7]
4 | 0.0362 ± 0.00095 µM | CCCCCCCC(=O)NCCCC[C@H](NC(=O)[C@H](C)NC(=O)[C@H](C)NC(=O)[C@H](CCC(N)=O)NC(=O)CNC(=O)[C@H](CCC(=O)O)NC(=O)[C@H](CC(C)C)NC(=O)[C@H](Cc1ccc(O)cc1)NC(=O)[C@H](CO)NC(=O)[C@H](CO)NC(=O)[C@@H](NC(=O)[C@H](CC(=O)O)NC(=O)[C@H](CO)NC(=O)[C@@H](NC(=O)[C@H](Cc1ccccc1)NC(=O)[C@@H](NC(=O)CNC(=O)[C@H](CCC(=O)O)NC(=O)[C@H](C)NC(=O)[C@@H](N)Cc1c[nH]cn1)[C@@H](C)O)[C@@H](C)O)C(C)C)C(=O)N[C@@H](CCC(=O)O)C(=O)N[C@@H](Cc1ccccc1)C(=O)N[C@H](C(=O)N[C@@H](C)C(=O)N[C@@H](Cc1c[nH]c2ccccc12)C(=O)N[C@@H](CC(C)C)C(=O)N[C@H](C(=O)N[C@@H](CCCCN)C(=O)NCC(=O)N[C@@H](CCCNC(=N)N)C(=O)NCC(=O)O)C(C)C)[C@@H](C)CC [compound 1]
